This note sets out measurements from ChEMBL document CHEMBL4177689, “In silico identification and in vivo characterization of small molecule therapeutic hypothermia mimetics” (Bioorg Med Chem, 2017).

Data set [1] in a line: Cytotoxicity against rat R28 cells assessed as reduction in cell viability at 10 uM after 4 days by MTS assay. In kind it is cell-based. Particulars: 96 h. Background: Tetrazolium assays rely on reduction of a dye to a coloured formazan, in cell work by metabolically active cells.
For data set [2], the species on record is Rattus norvegicus. Briefly: Activation of CIRBP protein expression in rat R28 cells at 10 uM at 37 degC after 4 days by Western blot. In kind it is functional, cell-based. (In general: A western blot detects proteins with antibodies after separation by electrophoresis.)
Data set [3] is described as follows: Cytotoxicity against rat R28 cells assessed as reduction in cell viability at 250 uM after 4 days by MTS assay. It is filed as cell-based. To be noted: 96 h.
Data set [4] concerns Rattus norvegicus. Briefly: Up regulation of CIRBP protein expression in Sprague-Dawley albino rat subcutaneous fat tissue at 20 nmol/kg, ip measured after 4 days post dose by Western blot analysis. In kind it is functional, organism-based.
Data set [5] relates to Rattus norvegicus. Briefly: Up regulation of CIRBP protein expression in Sprague-Dawley albino rat brain cortex at 20 nmol/kg, ip measured after 4 days post dose by Western blot analysis. It is filed as functional, organism-based.
In data set [6] the test system is Rattus norvegicus. Briefly: Up regulation of CIRBP protein expression in Sprague-Dawley albino rat pancreas at 20 nmol/kg, ip measured after 4 days post dose by Western blot analysis. In kind it is functional, organism-based.
Data set [7] relates to Rattus norvegicus. Briefly: Up regulation of CIRBP protein expression in Sprague-Dawley albino rat testis at 20 nmol/kg, ip measured after 4 days post dose by Western blot analysis. In kind it is functional, organism-based.
Data set [8] concerns Rattus norvegicus. Briefly: Up regulation of CIRBP protein expression in Sprague-Dawley albino rat heart at 20 nmol/kg, ip measured after 4 days post dose by Western blot analysis. It is filed as functional, organism-based.
The test system of data set [9] is Rattus norvegicus. The experiment in a line: Up regulation of CIRBP protein expression in Sprague-Dawley albino rat colon at 20 nmol/kg, ip measured after 4 days post dose by Western blot analysis. In kind it is functional, organism-based.
In data set [10] the test system is Rattus norvegicus. Briefly: Up regulation of CIRBP protein expression in Sprague-Dawley albino rat lung at 20 nmol/kg, ip measured after 4 days post dose by Western blot analysis. It is filed as functional, organism-based.
Data set [11] relates to Rattus norvegicus. The experiment in a line: Up regulation of CIRBP protein expression in Sprague-Dawley albino rat retina at 20 nmol/kg, ip measured after 4 days post dose by Western blot analysis. In kind it is functional, organism-based.
Data set [12] concerns Rattus norvegicus. Briefly: Up regulation of CIRBP protein expression in Sprague-Dawley albino rat central nervous system at 20 nmol/kg, ip measured after 4 days post dose by Western blot analysis. In kind it is functional, organism-based.

Calls of active or inactive are those of the source. The calls are words filed in the database; no cut-off is given here.

`O=C(NO)[C@@H](Cc1ccccc1)NS(=O)(=O)c1ccc(-n2cc(-c3ccc(Oc4ccccc4)cc3)nn2)cc1`: the Activity result in [1] is given as “Toxic”. Turning to `Nc1nc(SCC(=O)O)c2ncn(Cc3ccccc3)c2n1`, the outcome in the data set listed under Rattus norvegicus [2] was inactive.

As for `Cc1cc(-n2cc(-c3ccc(O)cc3)nn2)ccc1O`, the result in the data set filed under Rattus norvegicus [2] was Active. Still for that read-out and setting: as for `Oc1cc(NCC2CCCCC2)c(O)cc1CNC1CCCCC1`, the entry is “inactive”; as for `COC(=O)CSc1nc(N)nc2c1ncn2Cc1ccccc1`, “Active”. In the case of `COCCn1cnc2c(SCC(=O)OC)nc(N)nc21`, the result in the data set filed under Rattus norvegicus [2] was inactive. The same measure, in the same setting: as for `COC(=O)CSc1nc(N)nc2c1ncn2Cc1ccc(OC)cc1`, the entry is “inactive”.

Consider `O=c1c(O)cccc2cc(O)c(O)c(O)c12` [PURPUROGALLIN], for which the Activity entry in data set [1] is reported as “Toxic”. For the molecule `Nc1ncnc2c1ncn2[C@@H]1O[C@H](CO)[C@H](O)[C@@H]1N`, the outcome in the data set listed under Rattus norvegicus [2] was inactive. As to `O=C(/C=C/c1ccc(O)c(O)c1)OC1C(O)CC(OC(=O)/C=C/c2ccc(O)c(O)c2)(C(=O)O)CC1O` (stereo not given), the Activity result in data set [1] is “Toxic”. With `Oc1cccc(-c2cn(-c3ccc(O)c(F)c3)nn2)c1`, the result in the data set listed under Rattus norvegicus [2] was Active. On the same count and under the same terms, next, `C=CCn1cnc2c(SCC(=O)OC)nc(N)nc21`: “inactive”; `O=C(O)c1cc(-n2cc(-c3cccc(O)c3)nn2)ccc1O`: “inactive”; `NC(=O)Oc1cccc(OC(N)=O)c1`: “inactive”. `N=C(N)NC(=N)Nc1ccc(O)cc1`: in the data set filed under Rattus norvegicus [2], the result was inactive.

As to `CCN(CC)CCn1cnc2c(SCC(=O)O)nc(N)nc21`, the Activity result in data set [3] is reported as “Non-Toxic”. Further, the outcome in the data set on Rattus norvegicus [4], in the data set on Rattus norvegicus [6], in the data set listed under Rattus norvegicus [2], with Rattus norvegicus [7], with Rattus norvegicus [8] and with Rattus norvegicus [9] was Active. Besides, in the data set with Rattus norvegicus [10], the result was Active. The outcome with Rattus norvegicus [5], in the data set with Rattus norvegicus [11] and in the data set on Rattus norvegicus [12] was inactive. For `Cc1cc(O)ccc1-n1cc(-c2cccc(O)c2)nn1`, in the data set listed under Rattus norvegicus [2], the outcome was inactive. Same read-out and setting: as for `COC(=O)C1C[C@@H](O)[C@@H](O)[C@@H](O)C1` (stereo not given in full), the entry is “inactive”; as for `COC(=O)CSc1nc(N)nc2c1ncn2CCO`, “inactive”.

In the case of `CC(=O)N1C(=O)C2(NCC(C)N2)c2ccccc21` (stereo not given), the result in the data set filed under Rattus norvegicus [2] was inactive. As to `Oc1ccc(-c2cn(-c3ccc(O)c(C(F)(F)F)c3)nn2)cc1`, in the data set listed under Rattus norvegicus [2], the result was Active. For `COC(=O)CSc1nc(N)nc2c1ncn2CC1CC1`, the result in the data set listed under Rattus norvegicus [2] was inactive. Regarding `COc1cccc2c1C(=O)c1c(O)c3c(c(O)c1C2=O)CC(O)(/C(C)=N/O)CC3CC1CC(N)C(O)C(C)O1` (stereo not given), the Activity result in [1] is on record as “Toxic”.

With `CC1(C)N=C(N)N=C(N)N1c1cccc(CN)c1`, the outcome in the data set listed under Rattus norvegicus [2] was inactive. The same measure, in the same setting: as for `OCc1ncccc1O`, the entry is “inactive”.
